Test [1] has as its target T1, h-TGR5 (Homo sapiens, UniProt Q8TDU6).
T1 construct: expressed in transfected cells
T1 sequence (Q8TDU6 1-330): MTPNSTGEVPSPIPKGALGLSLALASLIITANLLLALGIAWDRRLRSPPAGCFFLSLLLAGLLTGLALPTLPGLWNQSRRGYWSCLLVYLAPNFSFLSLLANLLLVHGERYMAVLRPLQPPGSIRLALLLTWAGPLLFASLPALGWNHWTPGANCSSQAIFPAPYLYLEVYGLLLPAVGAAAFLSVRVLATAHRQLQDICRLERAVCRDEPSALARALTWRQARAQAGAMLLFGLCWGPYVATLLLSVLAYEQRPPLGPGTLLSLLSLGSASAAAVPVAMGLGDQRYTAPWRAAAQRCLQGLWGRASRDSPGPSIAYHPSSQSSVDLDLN
Nature of the test: TGR5 cAMP Assay using Cisbio cAMP Dynamic2 htrf kit (hTGR5CRE-luc HEK 293 cells). The class given is cell-based. The following applies: h-TGR5 cAMP EC50, Table 1; read-out: cAMP (EC50). In outline:
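[…], 4000 hTGR5CRE-luc HEK 293 cells per well, with 0.5 mM IBMX and d2-cAMP, were incubated 30 min at room temperature with compounds in 8-point half-log series, in quadruplicate.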

Test [2] has as its target T2, human TGR5 (h-TGR5) (Homo sapiens, UniProt Q8TDU6).
T2 construct: expressed in transfected cells
T2 sequence (Q8TDU6 1-330): T1 sequence (Q8TDU6 1-330)
As to the kind of experiment: TGR5/CRE-Luciferiase Assay (HEK 293 hTGR5/CRE-Luc cells). The following applies: h-TGR5 CRE-Luc EC50, Table 1; read-out: CRE-Luc (EC50). It is filed as cell-based. The method, boiled down:
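HEK293 cells stably carrying hTGR5 and a CRE-luciferase reporter were exposed to serially diluted compounds (diluted in DMEM with 5% DMSO) for 6 h. Cells were then lysed in luciferase buffer, luminescence was read, and EC50 values were derived from dose-response curves.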

Regarding `CC(C)(c1ccc(S(C)(=O)=O)cc1)c1cnc(SCc2c(F)cc(C(=O)O)cc2F)n1-c1ccc(F)cc1` [3,5-difluoro-4-({[1-(4-fluorophenyl)-5-{1-methyl-1-[4-(methylsulfonyl)phenyl]ethyl}-1H-imidazol-2-yl]thio}methyl)benzoic acid], the EC50 in test [1] and in test [2] was below 100 nM throughout.

Turning to `COc1cc(C(C)(C)c2cnc(SCc3c(F)cc(C(=O)O)cc3F)n2-c2ccc(F)cc2)ccc1Cl` [4-({[5-{l-[4-chloro-3-(methyloxy)phenyl]-1-methylethyl}-1-(4-fluorophenyl)-1H-imidazol-2-yl]thio}methyl)-3,5-difluorobenzoic acid], the half-maximal effective concentration (EC50) in test [1] and in test [2] was below 100 nM in each case.

As for `CC(C)(c1ccc(Cl)c(Cl)c1)c1cnc(SCc2c(F)cccc2Cl)n1-c1ccc(F)cc1F` [2-{[(2-chloro-6-fluorophenyl)methyl]thio}-5-[1-(3,4-dichlorophenyl)-1-methylethyl]-1-(2,4-difluorophenyl)-1H-imidazole], the EC50 in test [1] and in test [2] was 100 to 1000 nM in each case.

Turning to `CC(C)(c1ccc(S(N)(=O)=O)c(Cl)c1)c1cnc(SCc2ccc(Cl)c(-c3nnn[nH]3)c2)n1-c1ccc(F)cc1` [2-chloro-4-{1-[2-({[4-chloro-3-(1H-tetrazol-5-yl)phenyl]methyl}thio)-1-(4-fluorophenyl)-1H-imidazol-5-yl]-1-methylethyl}benzenesulfonamide], the EC50 in test [1] and in test [2] was 100 to 1000 nM throughout.

`COc1cc(C(C)(C)c2cnc(SCc3ccc(S(=O)(=O)NC(=O)N4CCC(O)C4)cc3Cl)n2-c2ccc(F)cc2)ccc1Cl` (stereo not shown) [N-{[3-chloro-4-({[5-{1-[4-chloro-3-(methyloxy)phenyl]-1-methylethyl}-1-(4-fluorophenyl)-1H-imidazol-2-yl]thio}methyl)phenyl]sulfonyl}-3-hydroxypyrrolidine-1-carboxamide]: the EC50 is below 100 nM in test [1] and 1000 to 10000 nM in test [2].

In the case of `CC(C)(c1ccc(Cl)c(Cl)c1)c1cnc(SCc2ccc(F)c(C(N)=O)c2)n1-c1ccc(F)cc1` [5-[({5-[1-(3,4-dichlorophenyl)-1-methylethyl]-1-(4-fluorophenyl)-1H-imidazol-2-yl}thio)methyl]-2-fluorobenzamide], the EC50 in test [1] and in test [2] was 100 to 1000 nM each time.

For the compound `COc1ccc(C(C)(C)c2cnc(SCc3ccc(S(=O)(=O)NC(=O)NC(C)C)cc3Cl)n2-c2ccc(F)cc2)cc1Cl` [3-chloro-4-({[5-{1-[3-chloro-4-(methyloxy)phenyl]-1-methylethyl}-1-(4-fluorophenyl)-1H-imidazol-2-yl]thio}methyl)-N-{[(1-methylethyl)amino]carbonyl}benzenesulfonamide], the EC50 in test [1] and in test [2] was 100 to 1000 nM each time.

Turning to `COc1cc(-n2c(C(C)(C)c3ccc(Cl)c(Cl)c3)cnc2SCc2c(F)cccc2Cl)ccc1F` [2-{[(2-chloro-6-fluorophenyl)methyl]thio}-5-[1-(3,4-dichlorophenyl)-1-methylethyl]-1-[4-fluoro-3-(methyloxy)phenyl]-1H-imidazole], the EC50 in test [1] and in test [2] was below 100 nM in each case.

For the compound `COc1cc(-n2c(C(C)(C)c3ccc(Cl)c(Cl)c3)cnc2SCc2ccc(S(=O)(=O)NC(=O)NN3CCCC3)cc2Cl)ccc1F` [3-chloro-4-[({5-[1-(3,4-dichlorophenyl)-1-methylethyl]-1-[4-fluoro-3-(methyloxy)phenyl]-1H-imidazol-2-yl}thio)methyl]-N-[(pyrrolidin-1-ylamino)carbonyl]benzenesulfonamide], the EC50 lay in the range of 1000 to 10000 nM in test [1] and 100 to 1000 nM in test [2].

With `COc1ccc(C(C)(C)c2c(Cl)nc(SCc3c(F)cccc3Cl)n2-c2ccc(F)cc2)cc1OC` [5-{1-[3,4-bis(methyloxy)phenyl]-1-methylethyl}-4-chloro-2-{[(2-chloro-6-fluorophenyl)methyl]thio}-1-(4-fluorophenyl)-1H-imidazole], the EC50 in test [1] and in test [2] was below 100 nM in each case.

Regarding `COc1cc(C(C)(C)c2cnc(SCc3ccc(S(=O)(=O)NC(=O)NN4CCCC4)cc3Cl)n2-c2ccc(F)cn2)ccc1Cl` [3-chloro-4-({[5-{1-[4-chloro-3-(methyloxy)phenyl]-1-methylethyl}-1-(5-fluoropyridin-2-yl)-1H-imidazol-2-yl]thio}methyl)-N-[(pyrrolidin-1-ylamino)carbonyl]benzenesulfonamide], the EC50 in test [1] and in test [2] was 100 to 1000 nM throughout.

For `CC(C)(c1ccc(Cl)c(Cl)c1)c1cnc(SCc2c(F)cccc2F)n1-c1ccc(F)cc1` [5-[1-(3,4-dichlorophenyl)-1-methylethyl]-2-{[(2,6-difluorophenyl)methyl]thio}-1-(4-fluorophenyl)-1H-imidazole], the values for the EC50 in test [1] and in test [2] were 100 to 1000 nM and below 100 nM, respectively.

In the case of `CCOC(=O)NS(=O)(=O)c1ccc(CSc2ncc(C(C)(C)c3ccc(Cl)c(Cl)c3)n2-c2ccc(F)c(OC)c2)c(Cl)c1` [ethyl ({3-chloro-4-[({5-[1-(3,4-dichlorophenyl)-1-methylethyl]-1-[4-fluoro-3-(methyloxy)phenyl]-1H-imidazol-2-yl}thio)methyl]phenyl}sulfonyl)carbamate], the EC50 in test [1] and in test [2] was 100 to 1000 nM each time.

For `COc1cc(C(C)(C)c2cnc(SCc3ccc(F)c(-c4nnn[nH]4)c3)n2-c2ccc(F)cc2)ccc1Cl` [5-[5-({[5-{1-[4-chloro-3-(methyloxy)phenyl]-1-methylethyl}-1-(4-fluorophenyl)-1H-imidazol-2-yl]thio}methyl)-2-fluorophenyl]-1H-tetrazole], the EC50 in test [1] and in test [2] was below 100 nM in each case.

For the compound `COc1cc(C(C)(C)c2cnc(SCc3ccc(S(=O)(=O)NC(=O)NN4CCCC4)cc3Cl)n2-c2ccc(F)c(C)c2)ccc1Cl` [3-chloro-4-({[5-{1-[4-chloro-3-(methyloxy)phenyl]-1-methylethyl}-1-(4-fluoro-3-methylphenyl)-1H-imidazol-2-yl]thio}methyl)-N-[(pyrrolidin-1-ylamino)carbonyl]benzenesulfonamide], the EC50 in test [1] is 100 to 1000 nM; in test [2], below 100 nM.

As to `COc1cc(C(C)(C)c2c(Cl)nc(SCC3CCN(S(C)(=O)=O)CC3)n2-c2ccc(F)cc2)ccc1Cl` [4-({[4-chloro-5-{1-[4-chloro-3-(methyloxy)phenyl]-1-methylethyl}-1-(4-fluorophenyl)-1H-imidazol-2-yl]thio}methyl)-1-(methylsulfonyl)piperidine], the EC50 in test [1] and in test [2] was 100 to 1000 nM each time.

For the compound `CC(C)(c1ccc(Cl)c(Cl)c1)c1cnc(SCc2cc(-c3nnn[nH]3)ccc2Cl)n1-c1ccc(F)cc1` [5-{4-chloro-3-[({5-[1-(3,4-dichlorophenyl)-1-methylethyl]-1-(4-fluorophenyl)-1H-imidazol-2-yl}thio)methyl]phenyl}-1H-tetrazole], the EC50 in test [1] and in test [2] was 100 to 1000 nM throughout.

For the compound `COc1cc(C(C)(C)c2c(C)nc(SCc3c(F)cc(C(=O)O)cc3Cl)n2-c2ccc(F)cc2)ccc1Cl` [3-chloro-4-({[5-{1-[4-chloro-3-(methyloxy)phenyl]-1-methylethyl}-1-(4-fluorophenyl)-4-methyl-1H-imidazol-2-yl]thio}methyl)-5-fluorobenzoic acid], the EC50 in test [1] is below 100 nM; in test [2], 100 to 1000 nM.

On to `COc1cc(C(C)(C)c2cnc(SCc3ccc(S(=O)(=O)NC(=O)NC4CCCC4)cc3Cl)n2-c2ccc(F)cc2)ccc1Cl` [3-chloro-4-({[5-{1-[4-chloro-3-(methyloxy)phenyl]-1-methylethyl}-1-(4-fluorophenyl)-1H-imidazol-2-yl]thio}methyl)-N-[(cyclopentylamino)carbonyl] benzenesulfonamide], for which the EC50 in test [1] and in test [2] was below 100 nM throughout.

Take `COc1ccc(C(C)(C)c2cnc(CNc3c(F)cccc3Cl)n2-c2ccc(F)cc2)cc1OC` [N-{[5-{1-[3,4-bis(methyloxy)phenyl]-1-methylethyl}-1-(4-fluorophenyl)-1H-imidazol-2-yl]methyl}-2-chloro-6-fluoroaniline]: the EC50 in test [1] is 100 to 1000 nM; in test [2], below 100 nM.

`COc1cc(-n2c(C(C)(C)c3ccc(F)c(Cl)c3)cnc2SCc2c(F)cc(CCCN(C)C)cc2F)ccc1F` [3-{4-[({5-[1-(3-chloro-4-fluorophenyl)-1-methylethyl]-1-[4-fluoro-3-(methyloxy)phenyl]-1H-imidazol-2-yl}thio)methyl]-3,5-difluorophenyl}-N,N-dimethylpropan-1-amine]: the EC50 in test [1] and in test [2] was below 100 nM each time.

For `COc1cc(C(C)(C)c2cnc(SCc3c(F)cc(OCCNC(=N)NC(=N)N)cc3F)n2-c2ccc(F)cc2)ccc1Cl` [N-(2-{[4-({[5-{1-[4-chloro-3-(methyloxy)phenyl]-1-methylethyl}-1-(4-fluorophenyl)-1H-imidazol-2-yl]thio}methyl)-3,5-difluorophenyl]oxy}ethyl)imido dicarbonimidic diamide], the EC50 in test [1] and in test [2] was below 100 nM throughout.

In the case of `COc1cc(C(C)(C)c2cnc(SCc3c(F)cc(N)cc3Cl)n2-c2ccc(F)cc2)ccc1Cl` [3-chloro-4-({[5-{1-[4-chloro-3-(methyloxy)phenyl]-1-methylethyl}-1-(4-fluorophenyl)-1H-imidazol-2-yl]thio}methyl)-5-fluoroaniline], the EC50 in test [1] and in test [2] was below 100 nM throughout.

As usually defined, the EC50 is the concentration that produces a half-maximal response.

The record behind these values is US8785488B2 (Exelixis Patent Company LLC, priority 2009, dated 2014).
